Measured values taken from patent US20260250318A1, “COMPOSITIONS AND METHODS FOR CROSSING THE BLOOD BRAIN BARRIER” (VOYAGER THERAPEUTICS, INC., priority 2022, published 2026).

Each sequence was assayed on brain (assay: NGS fold enrichment of synthetic library (passage 3) in C57Bl/6 mice, first cross-species screen). Conditions: synthetic library passage 3, intravenous, RNA NGS, brain of C57Bl/6 mice, relative to wild-type AAV9.
Type: in vivo
Procedure: (§1) After creation of the synthetic library with the sub-selected variants, the synthetic library was screened (passage 3) in two NHPs (2-4 years of age) and two strains of mice, BALB/c (n=3, 6-8 weeks of age) and C57Bl/6 mice (n=3, 6-8 weeks of age), in a first cross-species evolution screen. The animals were injected intravenously with the synthetic library. After a period in vivo, (e.g., 28-days) RNA was extracted from nervous tissue, e.g., brain, spinal cord, and DRG of the NHPs and the brains of mice. Following RNA recovery and RT-PCR amplification, a systematic NGS enrichment analysis was performed, and the peptides comprised within the variants were identified and the capsid enrichment ratio for each variant compared to the wild-type AAV9 control was calculated (fold enrichment relative to wild-type AAV9) (Table 9). […] All animals were dosed intravenously at […] across the screen.

Row | Sequence | Fold enrichment over AAV9 in the brain of Mice (C57Bl/6) [fold]
1 | GSGQNQQLQTLIRT | 0.813
2 | GSSTLVTIGKNQQT | 0.917
3 | GSGQLSVPYDNQQT | 0.622
4 | GPRLSDQSGQNQQT | 0.640
5 | GAYGMVSSGQNQQT | 0.732
6 | GSGQMQSAGSNQQT | 1.034
7 | GSLLTTASGQNQQT | 0.938
8 | GSSVRYEPKQNQQT | 0.450
9 | GDMTRSSSGQNQQT | 1.145
10 | GSGLSVQSGQNQQT | 1.695
11 | GSVSDVRAGQNQQT | 0.267
12 | GSGQNQQARPLELT | 0.389
13 | GTPTSPSSGQNQQT | 0.833
14 | GSPLQDRVGQNQQT | 0.469
15 | GSGQNQQTHPSPCT | 1.120
16 | GHTLTLSSGQNQQT | 0.648
17 | GSNGFTALGQNQQT | 0.830
18 | GSGQMGRQAVNQQT | 0.535
19 | GFMSYKGSGQNQQT | 1.808
20 | GSGGVTYQSQNQQT | 0.649

Same assay, conditions: synthetic library passage 3, intravenous, RNA from brain of C57Bl/6 mice, NGS, relative to wild-type AAV9

Row | Sequence | Fold enrichment over AAV9 in the brain of Mice (C57Bl/6) [fold]
21 | GSGQNPSFMRGQQT | 1.293
22 | GDSSSRISGQNQQT | 0.916
23 | GSDHSHRGGQNQQT | 0.818
24 | GSGQSYDMRGNQQT | 0.588
25 | GSGQNQGTVYPNQT | 0.835
26 | GSGQNKQMLSGNTT | 1.074
27 | GSRETSLSGQNQQT | 1.364
28 | GLGSKNPSGQNQQT | 1.184
29 | GSGSVGFIGQNQQT | 0.689
30 | GSGQNRAQIGTQQT | 0.776
31 | GSGSPQASRQNQQT | 0.923

The sequences below were run on brain, spinal cord, and DRG of the NHPs (assay: NGS fold enrichment of synthetic library (passage 3) in NHPs, first cross-species screen). Conditions: synthetic library passage 3, intravenous, RNA NGS, brain of NHPs, relative to wild-type AAV9.
Type: in vivo, cynomolgus macaques (Macaca fascicularis)
Procedure: as §1

Row | Sequence | Fold enrichment over AAV9 in the brain of NHPs [fold]
32 | GSGQNQQLQTLIRT | 1.538
33 | GSSTLVTIGKNQQT | 1.592
34 | GSGQLSVPYDNQQT | 1.521
35 | GPRLSDQSGQNQQT | 1.511
36 | GAYGMVSSGQNQQT | 1.518
37 | GSGQMQSAGSNQQT | 1.482
38 | GSLLTTASGQNQQT | 1.822
39 | GSSVRYEPKQNQQT | 1.063
40 | GDMTRSSSGQNQQT | 1.075
41 | GSGLSVQSGQNQQT | 2.637
42 | GSVSDVRAGQNQQT | 2.661
43 | GSGQNQQARPLELT | 1.061
44 | GTPTSPSSGQNQQT | 1.086
45 | GSPLQDRVGQNQQT | 1.548
46 | GSGQNQQTHPSPCT | 1.510
47 | GHTLTLSSGQNQQT | 3.405
48 | GSNGFTALGQNQQT | 3.361
49 | GSGQMGRQAVNQQT | 1.554
50 | GFMSYKGSGQNQQT | 2.865
51 | GSGGVTYQSQNQQT | 1.673

Same assay, conditions: synthetic library passage 3, intravenous, RNA NGS, spinal cord of NHPs, relative to wild-type AAV9

Row | Sequence | Fold enrichment over AAV9 in the spinal cord of NHPs [fold]
52 | GSGQNQQLQTLIRT | 1.425
53 | GSSTLVTIGKNQQT | 4.316
54 | GSGQLSVPYDNQQT | 0.000
55 | GPRLSDQSGQNQQT | 0.364
56 | GAYGMVSSGQNQQT | 3.469
57 | GSGQMQSAGSNQQT | 0.116
58 | GSLLTTASGQNQQT | 0.780
59 | GSSVRYEPKQNQQT | 1.564
60 | GDMTRSSSGQNQQT | 0.802
61 | GSGLSVQSGQNQQT | 2.929
62 | GSVSDVRAGQNQQT | 1.647
63 | GSGQNQQARPLELT | 0.059
64 | GTPTSPSSGQNQQT | 4.558
65 | GSPLQDRVGQNQQT | 0.753
66 | GSGQNQQTHPSPCT | 1.003
67 | GHTLTLSSGQNQQT | 5.648
68 | GSNGFTALGQNQQT | 2.663
69 | GSGQMGRQAVNQQT | 1.529
70 | GFMSYKGSGQNQQT | 0.209
71 | GSGGVTYQSQNQQT | 7.283

Same assay, conditions: synthetic library passage 3, intravenous, RNA from brain of NHPs, NGS, relative to wild-type AAV9

Row | Sequence | Fold enrichment over AAV9 in the brain of NHPs [fold]
72 | GSGQNPSFMRGQQT | 1.252
73 | GDSSSRISGQNQQT | 1.151
74 | GSDHSHRGGQNQQT | 1.174
75 | GSGQSYDMRGNQQT | 1.248
76 | GSGQNQGTVYPNQT | 1.358
77 | GSGQNKQMLSGNTT | 1.410
78 | GSRETSLSGQNQQT | 1.373
79 | GLGSKNPSGQNQQT | 1.147
80 | GSGSVGFIGQNQQT | 1.227
81 | GSGQNRAQIGTQQT | 1.138
82 | GSGSPQASRQNQQT | 1.189

Same assay, conditions: synthetic library passage 3, intravenous, RNA from spinal cord of NHPs, NGS, relative to wild-type AAV9

Row | Sequence | Fold enrichment over AAV9 in the spinal cord of NHPs [fold]
83 | GSGQNPSFMRGQQT | 1.454
84 | GDSSSRISGQNQQT | 3.787
85 | GSDHSHRGGQNQQT | 0.504
86 | GSGQSYDMRGNQQT | 0.567
87 | GSGQNQGTVYPNQT | 7.648
88 | GSGQNKQMLSGNTT | 2.219
89 | GSRETSLSGQNQQT | 5.193
90 | GLGSKNPSGQNQQT | 1.629
91 | GSGSVGFIGQNQQT | 8.261
92 | GSGQNRAQIGTQQT | 0.469
93 | GSGSPQASRQNQQT | 6.782

Each sequence was assayed on brain (assay: NGS fold enrichment of synthetic library (passage 3) in BALB/c mice, first cross-species screen). Conditions: synthetic library passage 3, intravenous, RNA NGS, brain of BALB/c mice, relative to wild-type AAV9.
Type: in vivo
Procedure: as §1

Row | Sequence | Fold enrichment over AAV9 in the brain of Mice (BALB/c) [fold]
94 | GSGQNQQLQTLIRT | 0.514
95 | GSSTLVTIGKNQQT | 0.819
96 | GSGQLSVPYDNQQT | 0.111
97 | GPRLSDQSGQNQQT | 0.579
98 | GAYGMVSSGQNQQT | 0.773
99 | GSGQMQSAGSNQQT | 1.128
100 | GSLLTTASGQNQQT | 0.635
101 | GSSVRYEPKQNQQT | 0.501
102 | GDMTRSSSGQNQQT | 1.038
103 | GSGLSVQSGQNQQT | 1.005
104 | GSVSDVRAGQNQQT | 0.747
105 | GSGQNQQARPLELT | 0.252
106 | GTPTSPSSGQNQQT | 0.662
107 | GSPLQDRVGQNQQT | 0.391
108 | GSGQNQQTHPSPCT | 0.546
109 | GHTLTLSSGQNQQT | 0.606
110 | GSNGFTALGQNQQT | 0.332
111 | GSGQMGRQAVNQQT | 0.411
112 | GFMSYKGSGQNQQT | 0.569
113 | GSGGVTYQSQNQQT | 0.181

Same assay, conditions: synthetic library passage 3, intravenous, RNA from brain of BALB/c mice, NGS, relative to wild-type AAV9

Row | Sequence | Fold enrichment over AAV9 in the brain of Mice (BALB/c) [fold]
114 | GSGQNPSFMRGQQT | 1.094
115 | GDSSSRISGQNQQT | 0.348
116 | GSDHSHRGGQNQQT | 0.331
117 | GSGQSYDMRGNQQT | 0.368
118 | GSGQNQGTVYPNQT | 0.815
119 | GSGQNKQMLSGNTT | 0.404
120 | GSRETSLSGQNQQT | 0.203
121 | GLGSKNPSGQNQQT | 0.424
122 | GSGSVGFIGQNQQT | 0.445
123 | GSGQNRAQIGTQQT | 0.654
124 | GSGSPQASRQNQQT | 0.542
